# According to PubChem BioAssay AID1963853 (Molecular Pharmacology Branch, DTP, NCI, 2024):
# Test system: 266295-075-R-J1-PDC spheroid viability
# Test: Anticancer human tumor 266295-075-R-J1-PDC patient-derived head and neck squamous carcinoma cell line growth inhibition [POLQ]
# Conditions: spheroids with HUVEC and MSC; for IC50: curve of first compound; for viability, T/C: stronger effect = lower value
# Outline: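 Three-cell-type spheroids modelling solid tumor plus stroma served as the readout system; POL inhibitors were tested individually and in combination, concentration ranges set by clinical Cmax where known.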
# [1] = second compound 0.0316 µM, first compound 0.0316 µM
# [2] = second compound 0.0316 µM, first compound 0.1 µM
# [3] = second compound 0.0316 µM, first compound 0.316 µM
# [4] = second compound 0.0316 µM, first compound 1 µM
# [5] = second compound 0.0316 µM, first compound 3.16 µM
# [6] = second compound 0.0316 µM, first compound 10 µM
# [7] = second compound 0.1 µM, first compound 0.0316 µM
# [8] = second compound 0.1 µM, first compound 0.1 µM
# [9] = second compound 0.1 µM, first compound 0.316 µM
# [10] = second compound 0.1 µM, first compound 1 µM
# [11] = second compound 0.1 µM, first compound 3.16 µM
# [12] = second compound 0.1 µM, first compound 10 µM
# [13] = second compound 0.316 µM, first compound 0.0316 µM
# [14] = second compound 0.316 µM, first compound 0.1 µM
# [15] = second compound 0.316 µM, first compound 0.316 µM
# [16] = second compound 0.316 µM, first compound 1 µM
# [17] = second compound 0.316 µM, first compound 3.16 µM
# [18] = second compound 0.316 µM, first compound 10 µM
# [19] = second compound 1 µM, first compound 0.0316 µM
# [20] = second compound 1 µM, first compound 0.1 µM
# [21] = second compound 1 µM, first compound 0.316 µM
# [22] = second compound 1 µM, first compound 1 µM
# [23] = second compound 1 µM, first compound 3.16 µM
# [24] = second compound 1 µM, first compound 10 µM
# [25] = second compound 3.16 µM, first compound 0.0316 µM
# [26] = second compound 3.16 µM, first compound 0.1 µM
# [27] = second compound 3.16 µM, first compound 0.316 µM
# [28] = second compound 3.16 µM, first compound 1 µM
# [29] = second compound 3.16 µM, first compound 3.16 µM
# [30] = second compound 3.16 µM, first compound 10 µM
# [31] = second compound 10 µM, first compound 0.0316 µM
# [32] = second compound 10 µM, first compound 0.1 µM
# [33] = second compound 10 µM, first compound 0.316 µM
# [34] = second compound 10 µM, first compound 1 µM
# [35] = second compound 10 µM, first compound 3.16 µM
# [36] = second compound 10 µM, first compound 10 µM
# 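Also: spheroids exposed to compounds for seven days before readout.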
compound,measurement,setting,value
C#Cc1c(F)ccc2cc(O)cc(-c3ncc4c(N5CC6CCC(C5)N6)nc(OCC56CCCN5CC(F)C6)nc4c3F)c12 (stereo unspecified) + Cc1cccc(N(C)C(=O)C2C(O)CCN2c2nc(C)cc(C(F)(F)F)c2C#N)c1,IC50,second compound 0.0316 µM,> 10 µM
same,IC50,second compound 0.1 µM,> 10 µM
same,IC50,second compound 0.316 µM,> 10 µM
same,IC50,second compound 1 µM,> 10 µM
same,IC50,second compound 3.16 µM,6.48 µM
same,IC50,second compound 10 µM,> 10 µM
same,"viability, T/C",[1],91.9%
same,"viability, T/C",[2],76.7%
same,"viability, T/C",[3],82.8%
same,"viability, T/C",[4],66.8%
same,"viability, T/C",[5],66.7%
same,"viability, T/C",[6],57%
same,"viability, T/C",[7],111%
same,"viability, T/C",[8],94.1%
same,"viability, T/C",[9],70%
same,"viability, T/C",[10],62.8%
same,"viability, T/C",[11],59.6%
same,"viability, T/C",[12],55.7%
same,"viability, T/C",[13],102%
same,"viability, T/C",[14],87.4%
same,"viability, T/C",[15],78.6%
same,"viability, T/C",[16],70.6%
same,"viability, T/C",[17],70.9%
same,"viability, T/C",[18],58.8%
same,"viability, T/C",[19],90.3%
same,"viability, T/C",[20],93.1%
same,"viability, T/C",[21],75.5%
same,"viability, T/C",[22],67.3%
same,"viability, T/C",[23],67.8%
same,"viability, T/C",[24],57.8%
same,"viability, T/C",[25],154%
same,"viability, T/C",[26],83.7%
same,"viability, T/C",[27],76.9%
same,"viability, T/C",[28],65.1%
same,"viability, T/C",[29],66.6%
same,"viability, T/C",[30],55.6%
same,"viability, T/C",[31],84.5%
same,"viability, T/C",[32],91.9%
same,"viability, T/C",[33],82.9%
same,"viability, T/C",[34],63.2%
same,"viability, T/C",[35],65.7%
same,"viability, T/C",[36],85%
C=CC(=O)N1CCN(c2nc(=O)n(-c3c(C)ccnc3C(C)C)c3nc(-c4c(O)cccc4F)c(F)cc23)C(C)C1 (stereo unspecified) + Cc1cccc(N(C)C(=O)C2C(O)CCN2c2nc(C)cc(C(F)(F)F)c2C#N)c1,IC50,second compound 0.0316 µM,> 10 µM
same,IC50,second compound 0.1 µM,> 10 µM
same,IC50,second compound 0.316 µM,> 10 µM
same,IC50,second compound 1 µM,> 10 µM
same,IC50,second compound 3.16 µM,> 10 µM
same,IC50,second compound 10 µM,> 10 µM
same,"viability, T/C",[1],95.2%
same,"viability, T/C",[2],89.3%
same,"viability, T/C",[3],97%
same,"viability, T/C",[4],110%
same,"viability, T/C",[5],140%
same,"viability, T/C",[6],126%
same,"viability, T/C",[7],91.5%
same,"viability, T/C",[8],92.7%
same,"viability, T/C",[9],96.2%
same,"viability, T/C",[10],115%
same,"viability, T/C",[11],123%
same,"viability, T/C",[12],131%
same,"viability, T/C",[13],93.6%
same,"viability, T/C",[14],116%
same,"viability, T/C",[15],100%
same,"viability, T/C",[16],126%
same,"viability, T/C",[17],116%
same,"viability, T/C",[18],121%
same,"viability, T/C",[19],91.6%
same,"viability, T/C",[20],108%
same,"viability, T/C",[21],112%
same,"viability, T/C",[22],103%
same,"viability, T/C",[23],125%
same,"viability, T/C",[24],130%
same,"viability, T/C",[25],99.5%
same,"viability, T/C",[26],105%
same,"viability, T/C",[27],118%
same,"viability, T/C",[28],133%
same,"viability, T/C",[29],126%
same,"viability, T/C",[30],116%
same,"viability, T/C",[31],117%
same,"viability, T/C",[32],108%
same,"viability, T/C",[33],128%
same,"viability, T/C",[34],120%
same,"viability, T/C",[35],132%
same,"viability, T/C",[36],105%
CC(C)n1c(=O)n(C)c2cnc3cc(F)c(-c4ccc(OCCCN5CCCCC5)nc4)cc3c21 + Cc1cccc(N(C)C(=O)C2C(O)CCN2c2nc(C)cc(C(F)(F)F)c2C#N)c1,IC50,second compound 0.0316 µM,> 10 µM
same,IC50,second compound 0.1 µM,> 10 µM
same,IC50,second compound 0.316 µM,> 10 µM
same,IC50,second compound 1 µM,> 10 µM
same,IC50,second compound 3.16 µM,> 10 µM
same,IC50,second compound 10 µM,> 10 µM
same,"viability, T/C",[1],101%
same,"viability, T/C",[2],127%
same,"viability, T/C",[3],95.2%
same,"viability, T/C",[4],73.6%
same,"viability, T/C",[5],93.2%
same,"viability, T/C",[6],60.7%
same,"viability, T/C",[7],99.1%
same,"viability, T/C",[8],111%
same,"viability, T/C",[9],98.9%
same,"viability, T/C",[10],83.4%
same,"viability, T/C",[11],73.5%
same,"viability, T/C",[12],69.8%
same,"viability, T/C",[13],125%
same,"viability, T/C",[14],118%
same,"viability, T/C",[15],96.8%
same,"viability, T/C",[16],90.8%
same,"viability, T/C",[17],88.1%
same,"viability, T/C",[18],61.9%
same,"viability, T/C",[19],103%
same,"viability, T/C",[20],90.8%
same,"viability, T/C",[21],95.3%
same,"viability, T/C",[22],91.3%
same,"viability, T/C",[23],78.4%
same,"viability, T/C",[24],60.3%
same,"viability, T/C",[25],91.8%
same,"viability, T/C",[26],95.4%
same,"viability, T/C",[27],88.8%
same,"viability, T/C",[28],90.8%
same,"viability, T/C",[29],80.2%
same,"viability, T/C",[30],64.9%
same,"viability, T/C",[31],97.3%
same,"viability, T/C",[32],103%
same,"viability, T/C",[33],96.5%
same,"viability, T/C",[34],100%
same,"viability, T/C",[35],78.9%
same,"viability, T/C",[36],67.1%
